Key:
[1] = compound: CC1=C(C(=NN1)C)CC2=C(C3=C(S2)N(C(=O)N(C3=O)C)CC(C)C)C(=O)N4C[C@@H](CO4)O + NC(=O)Nc1cc(-c2cccc(F)c2)sc1C(=O)N[C@H]1CCCNC1 [AZD7762] (partner 0.2 µM); assay: relative viability (nuclei count vs DMSO), 5 days (fraction); higher = more cells survive
Method in brief: (§1)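 Each reported value is a median over duplicate plates. It expresses relative viability: treated-well nuclei count divided by vehicle-well nuclei count. Lung cancer cell lines in 1536-well plates were dosed by pin tool a day after seeding, alone with one drug or with a fixed anchor-drug dose plus five library-drug doses (not always all listed) in √10 steps, and nuclei were counted after 5 days.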

[2] = compound: CC1=C(C(=NN1)C)CC2=C(C3=C(S2)N(C(=O)N(C3=O)C)CC(C)C)C(=O)N4C[C@@H](CO4)O + O=C(CCCCCCC(=O)Nc1ccccc1)NO [Vorinostat] (partner 1 µM); assay: as above
Method in brief: as §1

| Cell Line | relative viability ([1]; first compound 0.0025 µM) | relative viability ([1]; first compound 0.007906 µM) | relative viability ([1]; first compound 0.025 µM) | relative viability ([1]; first compound 0.07906 µM) | relative viability ([1]; first compound 0.25 µM) | relative viability ([2]; first compound 0.0025 µM) | relative viability ([2]; first compound 0.007906 µM) | relative viability ([2]; first compound 0.025 µM) | relative viability ([2]; first compound 0.07906 µM) | relative viability ([2]; first compound 0.25 µM) |
| --- | --- | --- | --- | --- | --- | --- | --- | --- | --- | --- |
| 201T | 0.67 | 0.673 | 0.573 | 0.586 | 0.677 | 0.979 | 1.02 | 0.951 | 0.952 | 0.973 |
| A-427 | 0.73 | 0.691 | 0.752 | 0.847 | 0.677 | 0.899 | 0.895 | 0.865 | 0.826 | 0.929 |
| ABC-1 | 0.777 | 0.631 | 0.732 | 0.878 | 0.841 | 1.08 | 1.27 |  | 0.904 | 0.864 |
| BEN | 0.637 | 0.631 | 0.599 | 0.51 | 0.646 | 0.553 | 0.493 | 0.593 | 0.527 | 0.536 |
| CAL-12T | 0.632 | 0.578 | 0.647 | 0.6 | 0.566 | 0.956 | 0.962 | 0.827 | 0.801 | 0.772 |
| COR-L23 |  |  |  |  |  | 0.499 | 0.378 | 0.37 | 0.422 | 0.484 |
| COR-L 105 |  |  |  |  |  | 0.89 | 0.918 | 0.374 | 0.86 | 0.744 |
| ChaGo-K-1 | 0.938 | 0.919 | 0.855 | 0.823 | 0.889 | 0.73 | 0.811 | 0.755 | 0.725 | 0.787 |
| EKVX | 0.803 | 0.721 | 0.761 | 0.517 | 0.725 | 0.863 | 0.756 | 0.806 | 0.604 | 0.416 |
| EMC-BAC-2 | 1.21 | 1.2 | 1.07 | 1.19 | 1.01 | 0.487 | 0.513 | 0.386 | 0.565 | 0.538 |
| EPLC-272H | 0.252 | 0.21 | 0.225 | 0.144 | 0.231 | 0.454 | 0.447 | 0.61 | 0.438 | 0.351 |
| H3255 | 0.929 | 0.927 | 0.755 | 0.85 | 0.936 | 0.969 | 0.716 | 0.821 | 0.844 | 0.854 |
| HARA | 0.281 | 0.288 | 0.324 | 0.297 | 0.218 | 0.511 | 0.657 | 0.653 | 0.516 | 0.509 |
| HCC-15 | 1.34 | 1.37 | 1.13 | 1.17 | 1.29 | 1.04 | 0.829 | 0.839 | 0.875 | 0.81 |
| HCC-44 | 1 | 0.984 | 0.98 | 1.06 | 1.07 | 1.08 | 1.12 | 1.03 | 1.05 | 1.18 |
| HCC-78 | 0.538 | 0.588 | 0.555 | 0.529 | 0.673 | 0.521 | 0.552 | 0.497 | 0.518 | 0.439 |
| HCC-366 | 0.271 | 0.361 | 0.297 | 0.277 | 0.378 | 0.438 | 0.365 | 0.348 | 0.399 | 0.447 |
| HCC-827 | 0.233 | 0.199 | 0.196 | 0.196 | 0.2 | 0.805 | 0.91 | 0.837 | 0.843 | 1.01 |

| Cell Line | relative viability ([1]; first compound 0.0025 µM) | relative viability ([1]; first compound 0.007906 µM) | relative viability ([1]; first compound 0.025 µM) | relative viability ([1]; first compound 0.07906 µM) | relative viability ([1]; first compound 0.25 µM) | relative viability ([2]; first compound 0.0025 µM) | relative viability ([2]; first compound 0.007906 µM) | relative viability ([2]; first compound 0.025 µM) | relative viability ([2]; first compound 0.07906 µM) | relative viability ([2]; first compound 0.25 µM) |
| --- | --- | --- | --- | --- | --- | --- | --- | --- | --- | --- |
| HOP-62 | 0.668 | 0.589 | 0.646 | 0.615 | 0.851 | 0.575 | 0.895 | 0.496 | 0.631 | 0.65 |
| IA-LM |  |  |  |  |  | 0.91 | 1.19 |  | 0.942 | 1.08 |
| LC-2-ad | 0.892 | 0.83 | 0.84 | 0.856 | 0.851 | 0.696 | 0.658 | 0.718 | 0.705 | 0.729 |
| LCLC-97TM1 | 0.194 | 0.326 | 0.331 | 0.28 | 0.369 | 0.984 | 1.03 | 0.575 | 0.72 | 0.776 |
| LCLC-103H | 0.793 | 0.914 | 0.768 | 0.807 | 0.749 | 0.871 | 0.896 | 0.792 | 0.772 | 0.689 |
| LK-2 | 0.304 | 0.252 | 0.298 | 0.129 | 0.134 | 0.342 | 0.272 | 0.208 | 0.266 | 0.301 |
| LOU-NH91 | 0.817 | 0.817 | 0.75 | 0.863 | 0.742 | 1.03 | 0.875 | 0.939 | 1.07 | 1 |
| LU99A | 0.333 | 0.379 | 0.326 | 0.311 | 0.337 | 0.462 | 0.526 | 0.505 | 0.46 | 0.575 |
| LXF-289 | 1.06 | 1.13 | 1.07 | 1.2 | 1.22 | 0.881 | 0.748 | 0.829 | 0.671 | 0.762 |
| NCI-H23 | 0.23 | 0.208 | 0.298 | 0.271 | 0.31 | 0.76 | 0.627 | 0.638 | 0.587 | 0.737 |
| NCI-H322M | 0.655 | 0.57 | 0.71 | 0.573 | 0.662 | 0.876 | 0.821 | 0.857 | 0.953 | 0.801 |
| NCI-H358 | 0.571 | 0.623 | 0.431 | 0.643 | 0.594 | 0.704 | 0.575 | 0.677 | 0.803 | 0.836 |
| NCI-H441 | 1.44 | 1.23 | 1.12 | 1.3 | 1.16 | 0.959 | 0.774 | 0.716 | 0.696 | 1.12 |
| NCI-H460 | 0.726 | 0.65 | 0.562 | 0.551 | 0.596 | 0.859 | 0.689 | 0.634 | 0.723 | 0.857 |
| NCI-H520 |  |  |  |  |  | 0.678 | 0.777 | 0.594 | 0.577 | 0.684 |
| NCI-H522 | 0.836 | 1.05 | 0.546 | 0.565 | 0.624 | 0.963 | 1.03 | 0.682 | 0.551 | 0.551 |
| NCI-H596 | 1.29 | 1.25 | 1.06 | 0.976 | 1.01 | 0.783 | 0.652 | 0.625 | 0.697 | 0.479 |
